In PMC7915858, “Complementary Effects of Carbamylated and Citrullinated LL37 in Autoimmunity and Inflammation in Systemic Lupus Erythematosus” (International Journal of Molecular Sciences, 2021):

Experiments:
pDCs [1] = assay: IFN-α production by purified pDCs stimulated with peptide-DNA complexes; type: cell-based, human; details: 24 h, ELISA; for IFN-α response of pDCs to peptide alone: peptide without DNA
Description: Buffy-coats from HD were from Centro Trasfusionale, Policlinico Umberto I, Rome, IT. After separation of mononuclear cells by Ficoll centrifugation, pDCs were purified as described, by using the Diamond Plasmacytoid Dendritic Cell Isolation Kit (Miltenyi Biotec, Bergisch Gladbach, Germany) to obtain 99% purity. Purified pDCs were seeded into 96-well round-bottom plates at 3.5/5 × 10^4 cells per well in 200 μL RPMI 1640 (GIBCO), supplemented with 10% fetal calf serum (FCS), 1% Hepes and 1% sodium pyruvate. LL37, cit-LL37 and carb-LL37 were premixed with total human genomic DNA (extracted from PBMC of HD, see below) (15 μg/mL). After 15 min incubation at room temperature the mix was added to the pDC cultures. IFN-α in supernatants was measured by ELISA (MabTech, Stockholm, Sweden), after 24 h (according to the manufacturer’s instructions).
Human DNA was extracted from PBMCs, as reported and was fragmented by sonication. Five milligrams of DNA in a volume of 300 μL were fragmented using the Sonics Vibra Cell sonicator (Newtown, CT, USA), with the following settings: 2, 4 and 10 sonication cycles (30 s on, 30 s off, in ice) to obtain DNA fragment sizes between 100 and 1000 bp. The resulting size distribution was controlled by 2% agarose gel electrophoresis.

[2] = tested on: SLE-affected kidney biopsies; assay: Confocal microscopy of SLE renal biopsies; parameters: species or system human; details: antibody RRB640, lupus nephritis class IV
Description: Paraffin-included SLE renal biopsies were obtained from Policlinico Umberto I, Rome, IT. Biopsies were de-paraffinized in xylene (5 min, two times), followed by passages in: absolute ethanol (3 min), 95% ethanol in water (3 min), 80% ethanol in water (3 min), 70% ethanol in water (3 min) and antigen retrieval (5 min at 95 °C in 10 mM sodium citrate, pH 6.0). […] Slides were washed three times for 3 min under agitation with washing buffer and incubated with donkey anti-mouse or anti-rabbit secondary antibody, conjugated with AlexaFluor 647, Alexa Fluor 568 or 594 or AlexaFluor 488 (Abcam, Cambridge, UK) depending on the combinations of markers analyzed (in humidified chamber). Slides were washed again in washing buffer and mounted in Prolong Gold anti-fade media containing a DNA dye (DAPI) (Molecular Probes), before analysis with a confocal microscope, objectives 20× or 40× and 60× in oil immersion. Images were taken by a FV1000 confocal microscope (Olympus, Tokyo, Japan), using a Olympus planapo objective 40× or 60× oil A.N. 1,42. Excitation light was obtained by a Laser Dapi 408 nm for DAPI, an Argon Ion Laser (488 nm) for FITC (Alexa 488), a Diode Laser HeNe (561 nm) for Alexa 568 and a Red Diode Laser (638 nm) for Alexa 647. DAPI emission was recorded from 415 to 485 nm, FITC emission was recorded from 495 to 550 nm, Alexa 568 from 583 to 628 nm and Alexa 647, from 634 to 750 nm.

[3] = tested on: native LL37-P1-specific T-cells (HLA-DRB5*0101 tetramer); assay: Peptide-MHC-tetramer staining of T-cells after PBMC stimulation; type: cell-based, human; details: 6 days stimulation, CD38hi CD4 T-cells; for Control (Ctr-B5) tetramer positive T-cells: Ctr-B5 tetr, lower panels Figure S6; for LL37-specific T-cells (LL37-B5 tetramer positive): LL37-B5 tetr, upper panels Figure S6
Description: Peptide-MHC-tetramers were from ImmunAware (Denmark). Staining was performed for 40 min with 1microL of tetramer suspension at 37 °C, followed by staining for CD4 (4 °C, 20 min), without washing. After incubation with anti-CD4 antibody, cells were washed, resuspended in PBS and kept at 4 °C. Before flow cytometry-acquisition, cells were labeled with PercP-conjugated 7-AAD to exclude dead cells. The peptide-MHC-tetramers used in this study are: the HLA-DR15-P1: tetramer of HLA-DRB1*1501 LLGDFFRKSKEKIGK (corresponding to the first aa at the NH2-term of the mature native LL37), (PE-conjugated) and the control peptide-MHC-tetramer called DR15-ctr: tetramer of HLA-DRB1*1501 […]1-169-185 (PE-conjugated). The other couple of peptide-MHC-tetramers used were HLA-DRB5*0101 loaded with the same LL37 epitope as above and the control tetramer HLA-DRB5*0101 loaded with the control epitope PVSKMRMATPLLMQA (CLIP-derived).

pDCs [4] = details: LL37 citrullinated at all five arginines; cited from earlier work
Excerpt: LL37 is able to activate innate immune cells and B-cells after forming complexes with nucleic acids in a special molecular conformation, suitable for TLR stimulation. PDCs, as well as B-cells, are both activated by LL37-DNA or LL37-RNA complexes.

SLE CD4 T-cells = details: cited from earlier work
Excerpt: The activation of autoreactive T- and B-cells characterizes Systemic Lupus Erythematosus (SLE), a rare but potentially severe disease, with poor therapeutic options. In this context, a deeper knowledge of the molecular pathways leading to autoimmunity in SLE may shed light over disease aspects still neglected and uncover novel disease biomarkers and therapy targets. The human cathelicidin antimicrobial peptide, (AMP, Uniprot P49913)—also called CAP-18 or FALL-39—is encoded by the human gene CAMP. The mature form, peptide LL37, which corresponds to the COOH-terminal part of the molecule ( ...

Row | Substance | IFN-α response of pDCs to peptide alone (pDCs [1]) | Presence in SLE-affected kidney biopsies and co-localization with IgG [2] | Control (Ctr-B5) tetramer positive T-cells [3] [%] | LL37-specific T-cells (LL37-B5 tetramer positive) [3] [%] | IFN-I/IFN-α production by pDCs, peptide-DNA complex (pDCs [1]; peptide premixed with human DNA (15 μg/mL)) | Ability to transform cell-free DNA into an inducer of IFN-I by human pDCs (pDCs [4]) | Antigen efficiency in SLE compared to native LL37 (SLE CD4 T-cells)
1 | L*LGDFFRK*SK*EK*IGKEFK*RIVQRIK*DFLRNLVPRTES [carb-LL37] | no IFN-α response | present in SLE-affected kidney biopsies and partially co-localizes with immunoglobulin (Ig)-G | 0.39 | 6.57 |  |  | 
2 | LLGDFFR(cit)KSKEKIGKEFKR(cit)IVQR(cit)IKDFLR(cit)NLVPR(cit)TES [cit-LL37, LL37 citrullinated at all five arginine sites] | no IFN-α response |  | 0.54 | 2.48 | did not stimulate any IFN-I production by pDCs | loose ability to transforms the “cell-free” DNA into an inducer of IFN-I by human pDCs | more efficient antigen in SLE than native LL37
